This is an account of results in patent US4250094A, “1-(Aminoalkyl) substituted-6-phenyl-4H-s-triazolo[4,3-a][1,4]benzodiazepines” (priority 1979, dated 1981).

In data set [1] the test system is oxotremorine. Kind of data set: Hypothermic tests with oxotremorine: body temperature change. Particulars: for Body Temperature °F. Change From Vehicle Control After 15 Minutes / Body Temperature °F. Change From Vehicle Control After 30 Minutes / Body Temperature °F. Change From Vehicle Control After 60 Minutes / Body Temperature °F. Change From Vehicle Control After 90 Minutes: ip, 0.5 h; for antagonism of oxotremorine temperature decrease: oxotremorine 0.6 mg./kg., in words. In kind it is in vivo, mice. From the text: Hypothermic tests with oxotermorine: [1-(4-pyrrolidino-2-butynyl)-2-pyrrolidinone].

Data set [2] relates to oxotremorine. Particulars: in words, cited from earlier work; for block of oxotremorine hypothermic response: mice.
Data set [3] concerns strychnine. In kind it is in vivo. Particulars: 3 mg./kg. intraperitoneally. As to the method:
The test consists in orally administering into groups of 6 mice the test compound, and 30 minutes later 3 mg./kg. strychnine sulfate intraperitoneally. The survivors after 4 hours reflect the activity of the compound as a muscle relaxant and antispasmodic.

Data set [4] is described as follows: Lethality of yohimbine hydrochloride alone. The following applies: mice, 30 mg./kg., in words. It is filed as in vivo. As to the method:
After two hours, the LD50 are determined.

Data set [5] concerns apomorphine. The following applies: Table VII.
Data set [6] relates to oxotremorine. It is filed as in vivo, mice. The following applies: Table VII. As to the method: The present compounds were tested as follows. […] The lowering of the body temperature was measured rectally with an electronic thermometer, before and 30 minutes after drug administration. After the drug administration the mice were kept at 19° C. in cages. A four degree difference between the control mice (oxotremorine alone) and the treated mice (oxotremorine and test compound) was used to indicate the antagonistic action of the test compound.

Data set [7] relates to yohimbine. It is filed as in vivo, mice. Particulars: Table VII. As to the method:
Ten male CF mice, 18-22 g., were injected with the anti-depressant and 30 minutes later with 30 mg. of yohimbine hydrochloride (YCl) in saline solution. After two hours, the LD50 are determined.

Data set [8] deals with nicotine. The following applies: control (untreated) mice, nicotine salicylate 2 mg./kg.

The structures appear in SMILES notation. Entries after “also recorded” stand apart in the source; their conditions may differ. Counter-ions that a name gives are not always drawn.

On to `CC(N)Cc1ccccc1` (stereo not shown) [Amphetamine], for which, in data set [1] (5 mg/kg), the “Body Temperature °F. Change From Vehicle Control After 15 Minutes” value is reported as -1.5 °F, the “Body Temperature °F. Change From Vehicle Control After 30 Minutes” value is given as “- 4.3 °F”, the “Body Temperature °F. Change From Vehicle Control After 60 Minutes” value is “- 4.4 °F” and the “Body Temperature °F. Change From Vehicle Control After 90 Minutes” value is listed as “- 2.2 °F”.

Consider `CN(C)CCCN1c2ccccc2CCc2ccccc21` [Imipramine], for which, in data set [1] (25 mg/kg), the “Body Temperature °F. Change From Vehicle Control After 15 Minutes” value is recorded as -0.4 °F, the “Body Temperature °F. Change From Vehicle Control After 30 Minutes” value is listed as “- 3.3 °F”, the “Body Temperature °F. Change From Vehicle Control After 60 Minutes” value is “- 5.6 °F” and the “Body Temperature °F. Change From Vehicle Control After 90 Minutes” value was “- 6.4 °F”. In addition, the “antagonism of oxotremorine temperature decrease” value in data set [1] (mice) was “antagonized”. For the same molecule, the “block of oxotremorine hypothermic response” value in data set [2] is “blocked”.

Take `O=C1C[C@@H]2OCC=C3CN4CC[C@]56c7ccccc7N1[C@H]5[C@H]2[C@H]3C[C@H]46` [strychnine sulfate]: in data set [3], the “lethality of strychnine sulfate in control mice” value was “routinely fatal to all the control mice”.

In the case of `CNCCCN1c2ccccc2CCc2ccccc21` [Desipramine], in data set [1] (25 mg/kg), the “Body Temperature °F. Change From Vehicle Control After 15 Minutes” value was -3.5 °F, the “Body Temperature °F. Change From Vehicle Control After 30 Minutes” value is “- 3.5 °F”, the “Body Temperature °F. Change From Vehicle Control After 60 Minutes” value was “- 4.1 °F” and the “Body Temperature °F. Change From Vehicle Control After 90 Minutes” value is reported as “- 3.6 °F”. Besides, in data set [1] (mice), the “antagonism of oxotremorine temperature decrease” value is recorded as “antagonized”.

In the case of `COC(=O)[C@@H]1[C@H]2C[C@H]3c4[nH]c5ccccc5c4CCN3C[C@@H]2CC[C@@H]1O` [yohimbine hydrochloride], the “lethality of yohimbine hydrochloride alone” value in data set [4] is recorded as “non-lethal”; in data set [4] (listed as YCl), “no death; also recorded: No mice or only one mouse is killed”.

Turning to `CN1CCc2cccc3c2[C@H]1Cc1ccc(O)c(O)c1-3` [apomorphine], the “hypothermic response in mice” value in data set [2] is listed as “produces hypothermic responses in mice”.

As to `CN(C)CCC=C1c2ccccc2COc2ccccc21` [Doxepine], in data set [1] (25 mg/kg), the “Body Temperature °F. Change From Vehicle Control After 15 Minutes” value is given as -2.3 °F, the “Body Temperature °F. Change From Vehicle Control After 30 Minutes” value is listed as “- 7.1 °F”, the “Body Temperature °F. Change From Vehicle Control After 60 Minutes” value is given as -11.0 °F and the “Body Temperature °F. Change From Vehicle Control After 90 Minutes” value is recorded as -12.3 °F. Also, in data set [1] (mice), the “antagonism of oxotremorine temperature decrease” value is “antagonized”.

With `CN(C)CCC=C1c2ccccc2CCc2ccccc21` [Amitriptyline], in data set [1] (25 mg/kg), the “Body Temperature °F. Change From Vehicle Control After 15 Minutes” value was “+0.7 °F”, the “Body Temperature °F. Change From Vehicle Control After 30 Minutes” value is “- 2.4 °F”, the “Body Temperature °F. Change From Vehicle Control After 60 Minutes” value is “- 5.4 °F” and the “Body Temperature °F. Change From Vehicle Control After 90 Minutes” value is listed as “- 6.8 °F”.

For the molecule `CN(C)Cc1nnc2n1-c1ccc(Cl)cc1C(c1ccccc1Cl)=NC2` [8-Chloro-1-[(dimethylamino)methyl]-6-(o-chlorophenyl)-4H-s-triazolo[4,3-a][1,4]benzodiazepine], in data set [5], the “Ap (Apomorphine test)” value was 17.8.

As for `NCc1nnc2n1-c1ccc(Cl)cc1C(c1ccccc1)=NC2` [1-(Aminomethyl)-8-chloro-6-phenyl-4H-s-triazolo[4,3-a][1,4]benzodiazepine], the “Oxo (oxotremorine test)” value in data set [6] is 29.7. Further, in data set [7], the “YO (Yohimbine test)” value came to 35.4.

Consider `CN1[C@@H]2CC[C@H]1C[C@@H](OC(=O)C(CO)c1ccccc1)C2` (stereo partly shown) [Atropine], for which the “block of oxotremorine hypothermic response” value in data set [2] is on record as “blocked”.

In the case of `CN1CCC[C@H]1c1cccnc1` [nicotine salicylate], the “effect of nicotine salicylate in control mice” value in data set [8] was “running convulsions followed by (2) tonic extensor fits; followed by (3) death”.

In the case of `COc1cc2c(cc1OC)C1CC(=O)C(CC(C)C)CN1CC2` (stereo not shown) [tetrabenazine], the “hypothermic response in mice” value in data set [2] is listed as “produces hypothermic responses in mice”.

As for `O=C1CCCN1CC#CCN1CCCC1` [Oxotremorine, 1-(4-pyrrolidino-2-butynyl)-2-pyrrolidinone], in data set [1] (0.6 mg./kg., mouse kept at room temperature), the “decrease of body temperature of a mouse” value is listed as “about 13 ° F”. In data set [1] (mice), the “time of peak hypothermia after administration” value was found to be 60 min. In addition, in data set [2], the “hypothermic response in mice” value was “produces hypothermic responses in mice”.
